Results: ChEMBL document CHEMBL5724696, “Autophagy assay results for EUbOPEN Chemogenomics Library” (2024)

System: TERT-RPE1
Test: Here: values are normalized to the negative (DMSO; defined as 0% autophagy induction) and positive (250nM Torin1; mTOR inhibitor; defined as maximal inducer of autophagy = 100%) control compounds and represented as % of autophagy induction. […] The impact of autophagy induction on cells is complex and depends on the affected target. As such, the magnitude of a phenotype may not be equally mirrored in the %-value of autophagy induction and vice versa. The dynamics of the induction may indicate the mode of activation: e.g. activation via phosphorylation or a signaling cascade may occur fast, while activation via transcription factors may take considerably longer. […] Of note, treatment concentrations may be sub-optimal for specific compounds, leading to false negative annotations.
Format: functional, Homo sapiens
Conditions: Compound Concentration 1 uM, Culturing Media DMEM/F12 (1:1), 1 % Penicillin/Streptomycin, 10% Fetal bovin serum Add-On: No, Screening Media Control DMEM/F12 (1:1), Screening Media Samples DMEM/F12 (1:1)

| SMILES | autophagy induction (Timepoint 12 hours) | autophagy induction (Timepoint 24 hours) | autophagy induction (Timepoint 36 hours) | autophagy induction (Timepoint 60 hours) |
| --- | --- | --- | --- | --- |
| O=C(O)c1ccc2cc(-c3ccc(O)c(C45CC6CC(CC(C6)C4)C5)c3)ccc2c1 [O-DEMETHYLATED ADAPALENE] | -7.665% | -12.7242% | -13.449% | 12.49% |
| CSc1ccc(C(=O)/C=C/c2cc(C)c(OC(C)(C)C(=O)O)c(C)c2)cc1 [ELAFIBRANOR] | -15.4717% | -8.668% | 8.143% | -14.713% |
| OC(c1ccc(-c2ccc(CN3CCN(Cc4ccncc4)CC3)cc2)c(F)c1)(C(F)(F)F)C(F)(F)F | -2.122% | -7.771% | -2.839% | 2.172% |
| CC(C)c1ccc(CC(=O)N2CCC[C@@H](c3cccc(OC(C)(C)C(=O)O)c3)C2)cc1 | 2.269% | -2.988% | 2.286% | -0.7623% |
| CCCCc1oc2ccccc2c1C(=O)c1cc(I)c(OCCN(CC)CC)c(I)c1.Cl [AMIODARONE HYDROCHLORIDE] | -399.679% | -0.6341% | 14.6432% | -20.4662% |
| CC[C@H](C)C(=O)O[C@H]1C[C@@H](C)C=C2C=C[C@H](C)[C@H](CC[C@@H]3C[C@@H](O)CC(=O)O3)[C@H]21 [LOVASTATIN] | -7.01% | 13.8584% | 45.8036% | 48.5439% |
| CC1(C)CCC(C)(C)c2cc(C(=O)Nc3ccc(C(=O)O)cc3)ccc21 | -16.8061% | -23.3221% | -14.7294% | 28.5347% |
| CN(CCOc1ccc(C[C@H](Nc2ccccc2C(=O)c2ccccc2)C(=O)O)cc1)c1ccccn1.O | -1.212% | -2.25% | 0.5142% | -9.85% |
| CCO[C@H](COc1ccc(C(F)(F)F)cc1)CSc1ccc(OCC(=O)[O-])c(C)c1.[Na+] | 0.706% | -0.6859% | 2.912% | 3.397% |
| Cc1cc(SCc2sc(-c3ccc(C(F)(F)F)cc3)nc2C)ccc1OCC(=O)O [GW501516] | 35.2172% | -7.412% | 9.218% | -19.4944% |
| C=C1/C(=C\C=C2/CCC[C@]3(C)[C@@H]([C@H](C)/C=C/C=C/C(O)(CC)CC)CC[C@@H]23)C[C@@H](O)C[C@@H]1O [SEOCALCITOL] | 1.435% | 3.014% | 6.115% | 9.3722% |
| CCCCCNC(=O)N1CCC(CN(Cc2ccc(Cl)cc2)Cc2ccc([N+](=O)[O-])s2)C1 (configuration not stated) [SR9011] | -13.327% | -1.26% | 19.5212% | -21.0748% |
| N[C@@H](Cc1cc(I)c(Oc2ccc(O)c(I)c2)c(I)c1)C(=O)O [LIOTHYRONINE] | 142.376% | -11.4171% | 8.172% | -7.587% |
| COc1ccc(-c2ccc3cc(C(=O)O)ccc3c2)cc1C12CC3CC(CC(C3)C1)C2 | -16.1508% | -22.2133% | -14.1287% | 30.465% |
| CCOC(=O)c1ccc(C#Cc2ccc3c(c2)C(C)(C)CCS3)nc1 [TAZAROTENE] | -17.2771% | -27.562% | -16.2551% | 40.4791% |
| CCc1ccc(N(CC(C)C)S(=O)(=O)c2ccc(OCC3CCOCC3)c(CO)c2)cc1 [GSK2981278] | 1.382% | -2.385% | -1.59% | 5.376% |
| O=C(NCCS(=O)(=O)c1ccc(C(F)(F)F)cn1)c1ccc(Cl)cc1 | -3.2973% | -5.225% | 0.4695% | 10.0166% |
| Cl.O=C(O)Cc1cccc(OCCCN(Cc2cccc(C(F)(F)F)c2Cl)CC(c2ccccc2)c2ccccc2)c1 | -4.945% | -7.042% | -10.7668% | -6.3424% |
